Test results as given in patent US10669272B2, “Substituted naphthyridinone compounds useful as T cell activators” (BRISTOL-MYERS SQUIBB COMPANY, priority 2018, dated 2020).
Where two headings read alike, the source gives them in different places.

Legend:
human DGKα = biological target: T1, human DGKα (Homo sapiens, UniProt P23743); assay: DGKα LIPGLO assay (extruded liposome substrate), in vitro DGK inhibition; assay type: biochemical; details: read-out: DGKa LIPGLO IC50
T1 construct: TVMV protease cleavage site (C); Hexa-His (C); made in house; host or cells: Sf9 insect cells (baculovirus, Bac-to-Bac)

human DGKζ = biological target: T2, human DGKζ (Homo sapiens, UniProt Q13574); assay: DGKζ LIPGLO assay (extruded liposome substrate), in vitro DGK inhibition; assay type: biochemical; details: read-out: DGKz LIPGLO IC50
T2 construct: TVMV protease cleavage site (C); Hexa-His (C); made in house; host or cells: Sf9 insect cells (baculovirus, Bac-to-Bac)

Human venous whole blood = assay: Human whole blood IFN-γ assay; assay type: cell-based; details: human whole blood, read-out: INFg Whole Blood Normalized Agonist EC50;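 further: blood from healthy donors exposed to compound for 1 h before stimulation with anti-CD3 and anti-CD28 at 1 µg/mL each, IFN-γ quantified in supernatant by AlphaLISA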
[1] = Homo sapiens, 24 h, normalized to 3 μM reference compound with anti-CD3 plus anti-CD28 as 100% activation
[2] = normalized to 3 μM reference compound with anti-CD3 plus anti-CD28 as 100% activation
[3] = anti-CD3 plus anti-CD28, 24 hours, 3 μM reference compound = 100% activation
[4] = Homo sapiens, 24 h, anti-CD3 plus anti-CD28, 24 hours, 3 μM reference compound = 100% activation

T2 sequence (Q13574 with tags, fused parts or gaps isoform Q13574-4): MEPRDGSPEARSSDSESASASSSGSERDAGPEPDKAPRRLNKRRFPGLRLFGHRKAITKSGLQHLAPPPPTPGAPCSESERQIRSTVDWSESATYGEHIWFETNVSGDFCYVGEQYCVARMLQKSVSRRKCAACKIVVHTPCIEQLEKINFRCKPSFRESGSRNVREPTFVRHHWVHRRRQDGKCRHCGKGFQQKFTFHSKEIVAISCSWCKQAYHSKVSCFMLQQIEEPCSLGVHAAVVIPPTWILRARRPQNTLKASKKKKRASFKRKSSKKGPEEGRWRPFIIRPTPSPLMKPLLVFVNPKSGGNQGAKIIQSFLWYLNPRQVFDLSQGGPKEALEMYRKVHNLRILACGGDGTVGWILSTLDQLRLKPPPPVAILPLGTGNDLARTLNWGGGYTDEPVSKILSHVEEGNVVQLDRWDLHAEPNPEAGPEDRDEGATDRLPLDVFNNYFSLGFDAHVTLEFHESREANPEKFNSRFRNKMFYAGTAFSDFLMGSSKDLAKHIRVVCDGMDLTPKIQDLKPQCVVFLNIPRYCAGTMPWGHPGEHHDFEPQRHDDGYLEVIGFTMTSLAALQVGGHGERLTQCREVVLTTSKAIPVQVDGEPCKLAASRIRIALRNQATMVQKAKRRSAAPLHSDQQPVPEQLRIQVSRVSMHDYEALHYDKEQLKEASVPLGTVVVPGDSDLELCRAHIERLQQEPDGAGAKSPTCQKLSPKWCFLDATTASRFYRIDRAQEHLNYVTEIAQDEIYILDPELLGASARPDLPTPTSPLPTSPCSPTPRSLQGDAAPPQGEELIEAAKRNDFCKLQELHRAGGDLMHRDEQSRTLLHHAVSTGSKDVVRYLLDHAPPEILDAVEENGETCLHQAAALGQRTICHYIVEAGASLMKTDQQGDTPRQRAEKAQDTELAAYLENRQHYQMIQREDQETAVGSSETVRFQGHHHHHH
T1 sequence (P23743 with tags, fused parts or gaps): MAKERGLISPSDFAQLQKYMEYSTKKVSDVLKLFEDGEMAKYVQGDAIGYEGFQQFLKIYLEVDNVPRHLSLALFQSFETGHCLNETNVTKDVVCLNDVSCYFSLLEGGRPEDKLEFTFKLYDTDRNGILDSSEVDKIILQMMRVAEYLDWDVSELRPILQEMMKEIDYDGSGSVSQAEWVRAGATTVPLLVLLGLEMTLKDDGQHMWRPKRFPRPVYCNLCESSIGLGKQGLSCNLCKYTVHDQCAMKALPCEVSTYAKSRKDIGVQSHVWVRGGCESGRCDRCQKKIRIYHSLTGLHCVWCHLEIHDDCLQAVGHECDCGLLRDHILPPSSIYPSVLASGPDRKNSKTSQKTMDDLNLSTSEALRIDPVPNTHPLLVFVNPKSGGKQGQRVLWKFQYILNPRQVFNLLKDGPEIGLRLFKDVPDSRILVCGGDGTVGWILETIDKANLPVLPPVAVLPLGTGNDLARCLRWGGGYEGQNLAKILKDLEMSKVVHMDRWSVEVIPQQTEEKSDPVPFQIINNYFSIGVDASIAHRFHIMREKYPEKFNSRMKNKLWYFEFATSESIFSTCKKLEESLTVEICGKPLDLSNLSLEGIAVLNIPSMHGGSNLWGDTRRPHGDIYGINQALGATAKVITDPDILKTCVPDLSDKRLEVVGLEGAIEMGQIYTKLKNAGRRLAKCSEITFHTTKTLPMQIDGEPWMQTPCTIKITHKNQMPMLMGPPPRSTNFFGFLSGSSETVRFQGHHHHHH

| SMILES | IC50 (human DGKα; liposome (LIPGLO) assay) | IC50 (human DGKζ; liposome (LIPGLO) assay) | IC50 (human DGKα; DGKα liposome (LIPGLO) assay) | IC50 (human DGKζ; DGKζ liposome (LIPGLO) assay) | EC50 (Human venous whole blood; [1]) | EC50 (Human venous whole blood; [2]) | EC50 (Human venous whole blood; [3]) | EC50 (Human venous whole blood; [4]) |
| --- | --- | --- | --- | --- | --- | --- | --- | --- |
| CC[C@H]1CN(C(c2ccc(F)cc2)c2ccc(F)cc2)[C@H](C)CN1c1cc(=O)n(C)c2ccc(C#N)nc12 [Example 1118] | 0.4 µM | 0.58 µM |  |  | 0.36 µM |  |  |  |
| C[C@@H]1CN(c2cc(=O)n(C)c3ccc(C#N)nc23)[C@@H](C)CN1C(c1ccc(F)cc1)c1nc(C2CC2)cs1 (single isomer, unassigned) [Example 701] | 0.21 µM | 0.032 µM |  |  |  | 0.05 µM |  |  |
| CC(c1ccc(Br)cc1)N1CCN(c2c(C#N)c(=O)n(C)c3ccc(C#N)nc23)C[C@H]1C (single isomer, unassigned) [Example 975] |  |  | 0.33 µM | 83 µM |  |  | 20 µM |  |
| C[C@@H]1CN(c2cc(=O)n(C)c3ccc(C#N)nc23)[C@@H](C)CN1C(c1ccc(F)cc1)c1ncno1 (stereo partly drawn) [Example 755] |  |  | 2.6 µM | 61 µM |  |  |  | 18 µM |
| C[C@@H]1CN(c2c(C#N)c(=O)n(C)c3ccc(C#N)nc23)[C@@H](C)CN1C(c1ccc(F)cc1)c1cccc(C(F)(F)F)n1 (single isomer, unassigned) [Example 844] |  |  | 100 µM | 5.2 µM |  |  |  | 2.7 µM |
| C[C@@H]1CN(c2cc(=O)n(C)c3ccc(C#N)nc23)[C@@H](C)CN1C(c1ccc(F)cc1)c1cc(C2CC2)on1 (single isomer, unassigned) [Example 729] |  |  | 1.1 µM | 1.8 µM |  |  |  | 2.2 µM |
| C[C@@H]1CN(c2cc(=O)n(C)c3ccc(C#N)nc23)[C@@H](C)CN1C(c1ccc(O)cc1F)C(F)(F)F (stereo partly drawn) [Example 625] | 0.23 µM | 2.4 µM |  |  | 0.7 µM |  |  |  |
| CCC(c1ccc(OC(F)(F)F)cc1F)N1C[C@H](C)N(c2cc(=O)n(C)c3ccc(C#N)nc23)C[C@H]1C (single isomer, unassigned) [Example 441] | 1.5 µM | 2.4 µM |  |  |  | 7.9 µM |  |  |
| C[C@@H]1CN(c2cc(=O)n(C)c3ccc(C#N)nc23)[C@@H](C)CN1C(c1ccc(F)cc1)c1ccc(C(F)(F)F)cn1 (single isomer, unassigned) [Example 680] | 1.2 µM | 2.5 µM |  |  | 0.48 µM |  |  |  |
| C[C@@H]1CN(c2cc(=O)n(C)c3ccc(C#N)nc23)[C@@H](C)CN1C(c1ccc(F)cc1)c1nccn1C (stereo partly drawn) [Example 714] | 18 µM | 28 µM |  |  |  | 3.9 µM |  |  |
| C[C@@H]1CN(c2c(C#N)c(=O)n(C)c3ccc(C#N)nc23)CCN1C(c1cccc(F)c1)c1ccc(C(F)(F)F)cn1 (single isomer, unassigned) [Example 949] |  |  | 6.6 µM | 1.1 µM |  |  | 20 µM |  |
| Cc1cc(C(C)N2C[C@H](C)N(c3c(C#N)c(=O)n(C)c4ccc(C#N)nc34)C[C@H]2C)no1 (single isomer, unassigned) [Example 804] |  |  | 6.9 µM | 32 µM |  |  | 20 µM |  |
| Cc1ccc(C(c2ccc(C#N)cc2)N2C[C@H](C)N(c3cc(=O)n(C)c4ccc(C#N)nc34)C[C@H]2C)nc1 (stereo partly drawn) [Example 453, 8-((2S,5R)-4-((4-cyanophenyl)(5-methylpyridin-2-yl)methyl)-2,5-dimethylpiperazin-1-yl)-5-methyl-6-oxo-5,6-dihydro-1,5-naphthyridine-2-carbonitrile] | 0.31 µM | 1 µM |  |  |  | 2.8 µM |  |  |
| CC(c1ccc(C2CC2)cc1F)N1C[C@H](C)N(c2cc(=O)n(C)c3ccc(C#N)nc23)C[C@H]1C (single isomer, unassigned) [Example 1200] | 0.25 µM | 0.053 µM |  |  | 0.23 µM |  |  |  |
| COCC(c1ccc(F)cc1)N1C[C@H](C)N(c2cc(=O)n(C)c3ccc(C#N)nc23)C[C@H]1C (single isomer, unassigned) [Example 559] | 0.065 µM | 2.7 µM |  |  | 0.27 µM |  |  |  |
| CC[C@H]1CN(C(c2ccc(F)cc2)c2ccc(C#N)cc2)[C@H](COC)CN1c1cc(=O)n(C)c2ccc(C#N)nc12 (single isomer, unassigned) [Example 1171] | 1.5 µM | 0.35 µM |  |  |  | 0.17 µM |  |  |
| CCc1ccccc1C(c1ccc(F)cc1)N1C[C@H](C)N(c2c(C#N)c(=O)n(C)c3ccc(C#N)nc23)C[C@H]1C (single isomer, unassigned) [Example 810] |  |  | 240 µM | 23 µM |  |  | 20 µM |  |
| CC[C@@H]1CN(c2cc(=O)n(C)c3ccc(C#N)nc23)[C@@H](C)CN1C(c1ccc(OC(F)(F)F)cc1)C1CC1 (stereo partly drawn) [Example 1190] | 2.3 µM | 5.9 µM |  |  | 1.2 µM |  |  |  |
| COC[C@@H]1CN(c2cc(=O)n(C)c3ccc(C#N)nc23)[C@@H](C)CN1C(C)c1ccc(F)cc1 (single isomer, unassigned) [Example 1159] | 0.36 µM | 0.13 µM |  |  | 0.3 µM |  |  |  |
| CC[C@H]1CN(C(c2cccc(F)c2)c2ccc(C)cn2)[C@H](C)CN1c1cc(=O)n(C)c2ccc(C#N)nc12 (single isomer, unassigned) [Example 1125] | 0.36 µM | 1.5 µM |  |  |  | 0.17 µM |  |  |
| Cc1ccc(C(c2ccc(Cl)cc2)N2C[C@H](C)N(c3cc(=O)n(C)c4ccc(C#N)nc34)C[C@H]2C)nc1 (single isomer, unassigned) [Example 365] | 0.27 µM | 0.77 µM |  |  |  | 0.36 µM |  |  |
| C[C@@H]1CN(c2c(C#N)c(=O)n(C)c3ccc(C#N)nc23)CCN1C(c1cccc(F)c1)c1ccc(F)cn1 (single isomer, unassigned) [Example 911] |  |  | 0.69 µM | 1.2 µM |  |  | 0.34 µM |  |
| C[C@@H]1CN(c2cc(=O)n(C)c3ccc(C#N)nc23)[C@@H](C)CN1C(c1ccc(F)cc1)c1cc(F)ccn1 (single isomer, unassigned) [Example 474] | 0.26 µM | 1.2 µM |  |  |  | 0.26 µM |  |  |
| C[C@@H]1CN(c2cc(=O)n(C)c3ccc(C#N)nc23)[C@@H](C)CN1C(c1ccc(F)cc1)c1nc(C2CC2)nn1C (single isomer, unassigned) [Example 769] |  |  | 16 µM | 0.2 µM |  |  | 0.46 µM |  |
| C[C@@H]1CN(c2cc(=O)n(C)c3ccc(C#N)nc23)[C@@H](C)CN1C(c1ccc(F)cc1)c1cccc(S(C)(=O)=O)c1 (single isomer, unassigned) [Example 689] | 7.6 µM | 3 µM |  |  |  | 1.5 µM |  |  |

The next lines start with results.

| IC50 (human DGKα; liposome (LIPGLO) assay) | IC50 (human DGKζ; liposome (LIPGLO) assay) | IC50 (human DGKα; DGKα liposome (LIPGLO) assay) | IC50 (human DGKζ; DGKζ liposome (LIPGLO) assay) | SMILES | EC50 (Human venous whole blood; [1]) | EC50 (Human venous whole blood; [2]) | EC50 (Human venous whole blood; [3]) | EC50 (Human venous whole blood; [4]) |
| --- | --- | --- | --- | --- | --- | --- | --- | --- |
| 67 µM | 62 µM |  |  | CC(c1ccc(OC(F)(F)F)cc1)N1C[C@H](C)N(c2cc(=O)n(C)c3ccc(C#N)nc23)C[C@H]1CN1CCN(C)CC1 (stereo partly drawn) [Example 1418] |  | 20 µM |  |  |
| 0.97 µM | 0.48 µM |  |  | CC[C@H]1CN(C(C)c2cc(F)c(F)c(F)c2)[C@H](C)CN1c1cc(=O)n(C)c2ccc(C#N)nc12 (single isomer, unassigned) [Example 1383] | 7 µM |  |  |  |
| 4.1 µM | 7.6 µM |  |  | CC(c1cc(C(C)(C)C)on1)N1C[C@H](C)N(c2cc(=O)n(C)c3ccc(C#N)nc23)C[C@H]1C (single isomer, unassigned) [Example 1283] | 4 µM |  |  |  |
| 50 µM | 44 µM |  |  | C[C@@H]1CN(c2cc(=O)n(C)c3ccc(C#N)nc23)[C@@H](C)CN1Cc1nnnn1C1CC1 [Example 1423] | 20 µM |  |  |  |
| 1.1 µM | 0.037 µM |  |  | CC(c1cccc(OC(F)(F)F)c1F)N1C[C@H](C)N(c2cc(=O)n(C)c3ccc(C#N)nc23)C[C@H]1C (single isomer, unassigned) [Example 1208] |  | 1 µM |  |  |
| 120 µM | 19 µM |  |  | C[C@@H]1CN(c2cc(=O)n(C)c3ccc(C#N)nc23)[C@@H](C)CN1C(c1ccc(F)cc1)C(F)(F)CO (single isomer, unassigned) [Example 1311] | 11 µM |  |  |  |
| 0.0088 µM | 0.16 µM |  |  | CC[C@H]1CN(C(C)c2ccc(OC(F)F)cc2)[C@H](C)CN1c1cc(=O)n(C)c2ccc(C#N)nc12 (single isomer, unassigned) [Example 1379] |  | 0.51 µM |  |  |
| 0.63 µM | 0.04 µM |  |  | CC[C@@H]1CN(c2cc(=O)n(C)c3ccc(C#N)nc23)[C@@H](C)CN1C(C)c1ccc(C2CC2)cc1F (single isomer, unassigned) [Example 1340] |  | 0.08 µM |  |  |
| 5.9 µM | 0.7 µM |  |  | CC[C@H]1CN(C(C)c2cc(F)cc(OC(F)(F)F)c2)[C@H](C)CN1c1cc(=O)n(C)c2ccc(C#N)nc12 (stereo partly drawn) [Example 1385] |  | 5.3 µM |  |  |
| 0.067 µM | 0.069 µM |  |  | CCC(c1ccc(C2CC2)cc1F)N1C[C@H](C)N(c2cc(=O)n(C)c3ccc(C#N)nc23)C[C@H]1C (stereo partly drawn) [Example 1219] |  | 0.32 µM |  |  |
| 0.11 µM | 0.14 µM |  |  | C[C@@H]1CN(c2cc(=O)n(C)c3ccc(C#N)nc23)[C@@H](C)CN1C(c1ccc(F)cc1)c1csc(C(F)(F)F)n1 (single isomer, unassigned) [Example 1334] |  | 0.26 µM |  |  |
| 5.9 µM | 4.9 µM |  |  | C[C@@H]1CN(c2cc(=O)n(C)c3ccc(C#N)nc23)[C@@H](C)CN1Cc1cc(-c2ccccc2)no1 [Example 1425] | 20 µM |  |  |  |
| 0.72 µM | 0.68 µM |  |  | CC(c1ccc(C2CC2)cc1)N1C[C@H](C)N(c2cc(=O)n(C)c3ccc(C#N)nc23)C[C@H]1C (single isomer, unassigned) [Example 1215] |  | 7.2 µM |  |  |
